According to patent US4642355A, “Proline derivatives” (Otsuka Pharmaceutical Factory, Inc., priority 1984, dated 1987):
Structures can show the parent of a compound that is named as a salt.

Experiments:
[1] = target: T1, angiotensin-converting enzyme (ACE) (Oryctolagus cuniculus, UniProt P12822); assay: Inhibitory activity against angiotensin-converting enzyme (ACE); assay type: biochemical, rabbit; details: for ACE inhibitory activity higher than Test Compound No. 4 (fold): compared with Test Compound No. 4; for IC50: enzyme from rabbit lung acetone powder, substrate hippurylhistidyl-leucine, 37° C.
T1 construct: enzyme solution prepared from rabbit lung acetone powder; tissue Sigma Chemical Co., Ltd., U.S.A; host or cells: rabbit lung (acetone powder)
T1 sequence (P12822 34-1310): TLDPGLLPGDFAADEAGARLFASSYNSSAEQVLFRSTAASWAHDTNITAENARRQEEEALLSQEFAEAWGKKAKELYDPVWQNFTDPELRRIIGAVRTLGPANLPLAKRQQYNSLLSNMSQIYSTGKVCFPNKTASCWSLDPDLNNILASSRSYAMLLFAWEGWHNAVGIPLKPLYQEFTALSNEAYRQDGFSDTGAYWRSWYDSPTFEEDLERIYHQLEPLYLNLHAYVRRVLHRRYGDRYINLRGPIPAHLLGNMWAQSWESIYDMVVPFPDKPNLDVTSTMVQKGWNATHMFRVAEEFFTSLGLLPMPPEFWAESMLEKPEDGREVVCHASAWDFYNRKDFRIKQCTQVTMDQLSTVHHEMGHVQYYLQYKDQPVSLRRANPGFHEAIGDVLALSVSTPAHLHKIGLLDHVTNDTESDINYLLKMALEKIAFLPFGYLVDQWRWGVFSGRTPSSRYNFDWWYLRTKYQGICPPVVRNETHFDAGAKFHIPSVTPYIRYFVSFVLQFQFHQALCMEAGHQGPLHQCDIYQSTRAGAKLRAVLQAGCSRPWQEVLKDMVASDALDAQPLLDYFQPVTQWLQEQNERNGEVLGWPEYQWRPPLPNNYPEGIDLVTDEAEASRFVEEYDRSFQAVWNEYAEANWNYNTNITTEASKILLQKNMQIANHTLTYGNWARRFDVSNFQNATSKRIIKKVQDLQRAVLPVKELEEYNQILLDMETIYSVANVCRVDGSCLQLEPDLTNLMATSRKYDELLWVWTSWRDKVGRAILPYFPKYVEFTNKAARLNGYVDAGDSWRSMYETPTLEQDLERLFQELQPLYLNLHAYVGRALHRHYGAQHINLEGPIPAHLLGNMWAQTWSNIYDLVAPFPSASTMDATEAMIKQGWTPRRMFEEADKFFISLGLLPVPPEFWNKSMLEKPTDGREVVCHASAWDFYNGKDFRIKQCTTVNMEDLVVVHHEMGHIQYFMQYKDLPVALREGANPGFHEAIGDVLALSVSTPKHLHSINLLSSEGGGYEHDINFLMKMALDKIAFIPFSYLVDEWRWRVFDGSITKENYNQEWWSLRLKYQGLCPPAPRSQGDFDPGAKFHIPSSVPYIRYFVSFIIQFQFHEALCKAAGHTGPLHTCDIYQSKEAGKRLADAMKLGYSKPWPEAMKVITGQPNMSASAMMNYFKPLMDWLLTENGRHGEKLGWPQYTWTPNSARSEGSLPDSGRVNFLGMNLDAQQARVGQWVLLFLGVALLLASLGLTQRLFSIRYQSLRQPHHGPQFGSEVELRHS
Experimental: Inhibitory activity against angiotensin-converting enzyme (ACE)
A 100 μl quantity of an enzyme solution prepared from rabbit lung acetone powder (product of Sigma Chemical Co., Ltd., U.S.A.) was mixed with 100 μl of a sample solution. The mixture was gently shaken at 37° C. for 10 minutes. To the reaction mixture was added 100 μl of a solution containing 6.99 mM of hippurylhistidyl-leucine (product of Peptide Institute, Inc., Japan) as a substrate. The mixture was reacted at 37° C. for 45 minutes while being shaken. The reaction was terminated by addition of 200 μl of a 1N sulfuric acid aqueous solution to the reaction mixture. Sodium chloride (saturation amount) and diethyl ether (2 ml) were added to the reaction mixture to extract the hippuric acid formed by the reaction. The resulting mixture was vigorously shaken for 15 minutes and centrifuged at 2000 rpm for 5 minutes. A 1.5 ml quantity of the ether layer was separated. After the solvent was distilled off, the residue was redissolved in 1.5 ml of distilled water and the absorbance at 228 nm was measured. A control was prepared by repeating the same procedure as above except that 100 μl of distilled water was used in place of the sample solution.
The inhibitory activity was calculated by deducting the absorbance value of the residue formed by addition of the sample solution from that of the control, and the resulting value was divided by the absorbance value of the control and multiplied by 100, thereby giving a percent inhibition. The inhibitory activity was expressed as IC50, i.e., the concentration of the sample solution in the reaction mixture in which concentration 50% inhibition is achieved.
The test compounds used in the experiment are shown below.

[2] = system: angiotensin-converting enzyme (ACE); assay: ACE inhibitory effect in normotensive rats (inhibition of pressor response to angiotensin I); assay type: in vivo; details: 1 mg/kg directly to the stomach, male Wistar rats, urethane anesthesia, AI/AII ratio
Experimental: ACE Inhibitory effect in normotensive rats
Male Wistar rats weighing 200 to 400 g were anesthetized by the intraperitoneal injection of urethane (1.25 g/kg) and held in the supine position. The degree of inhibition of pressor response to angiotensin (A) I was determined using these rats. The blood pressure was measured with a femoral artery cannula connected to a transducer (product of Nihon Kohden Kabushiki Kaisha, Japan, Model MPU-0.5-290-0-III) and recorded in terms of a mean blood pressure value through a carrier amplifier (product of Nihon Kohden Kabushiki Kaisha, Japan, Model RP-5) on a multipurpose polygraph (product of Nihon Kohden Kabushiki Kaisha, Japan, Model RM-85). The rats were set in an experimental device and left therein for 1 hour to stabilize the hemodynamics. Then experiments were commenced. Since the magnitude of the pressor response to AI varies with time, the ratio of the responses to AI and AII (AI/AII ratio) was used to determine the magnitude of the pressor response to AI which ratio remained more constant. Through the cannulated femoral vein, AI (300 ng/kg) was administered first and AII (300 ng/kg) was given in 5 minutes to measure an AI/AII ratio. At 30 minutes after the first administration of AI, AI (300 ng/kg) was similarly administered and AII (300 ng/kg) was given in 5 minutes, followed by measuring an AI/AII ratio. This procedure was repeated until a constant value of AI/AII ratio was obtained. (The mean value of AI/AII ratios each resulting from the repeated procedure is represented as "C" in an equation to be shown later). At 10 minutes after the final administration of AII, an aqueous solution containing 1 mg/kg of each test compound was given directly to the stomach through a vinyl tube. At 10 minutes after administration of the test compound, AI (300 ng/kg) was given and at 5 minutes later, AII (300 ng/kg) was administered, followed by measurement of the AI/AII ratio (which was represented as "E" in the following equation). An ACE percent inhibition was calculated according to the equation indicated below. [formula]
Subsequently at each time of 60, 120 and 240 minutes after the administration of the test compound, AI (300 ng/kg) was given in the same manner as above and AII (300 ng/kg) was administered in 5 minutes, whereupon an ACE percent inhibition was calculated in the same way.
The results are shown below in Table 26 in which the test compounds listed are those prepared in the Examples indicated therein.

Row | ACE inhibitory activity higher than Test Compound No. 4 (fold) [1] | IC50 [1] | SMILES | ACE Percent Inhibition, mean ± SD ([2]; 15 min. after administration) | ACE Percent Inhibition, mean ± SD ([2]; 60 min. after administration) | ACE Percent Inhibition, mean ± SD ([2]; 120 min. after administration) | ACE Percent Inhibition, mean ± SD ([2]; 240 min. after administration)
1 | about 24 times | 0.521 nM | CCCCCCSC[C@H](NC(C)C(=O)N1CCC[C@H]1C(=O)O)C(=O)O (single isomer, unassigned) [Test Compound 1] |  |  |  | 
2 |  | 5240 nM | COC(=O)[C@H](CCSC)NC(C)C(=O)N1CCC[C@H]1C(=O)O (stereo partly drawn) [Test Compound 5, N--[(S)--1-methoxycarbonyl-3-methylthiopropyl]-(R,S)--alanyl-(S)--proline hydrochloride, reference compound] | 1 ± 5% | 6 ± 4% | 7 ± 6% | 9 ± 1%
3 | about 9.4 times | 1.35 nM | CCCCCCSC[C@H](NC(C)C(=O)N1CCC[C@H]1C(=O)O)C(=O)O (single isomer, unassigned) [Test Compound 2] |  |  |  | 
